From the supplement of paper PMC10307832

How the values were obtained:
Test in all cases: relative viability (nuclei count vs DMSO), 5 days (fraction); higher = more cells survive
[1] = compound: C[C@@]1(C(=O)Nc2ccc(F)nc2)CCCN1c1nc(Nc2cc(C3CC3)n[nH]2)c2cccn2n1
Outline: (§1)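 Lung cancer cell lines were seeded into 1536-well plates, kept overnight at 37 °C and pinned with five library-drug doses (not always all listed) spaced by √10. After 5 days, nuclei were Hoechst-stained, imaged at 4× and counted with MetaXpress. Viability is treated-well nuclei over vehicle-well nuclei, taken as a median across plates. Plates needed control CV below 25% and at least one doubling.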

Motesanib = compound: CC1(C)CNc2cc(NC(=O)c3cccnc3NCc3ccncc3)ccc21 [Motesanib]
Outline: as §1

[2] = compound: C[C@@]1(C(=O)Nc2ccc(F)nc2)CCCN1c1nc(Nc2cc(C3CC3)n[nH]2)c2cccn2n1 + Nc1nc2[nH]cc(CCc3ccc(C(=O)N[C@@H](CCC(=O)O)C(=O)O)cc3)c2c(=O)[nH]1 [Pemetrexed] (partner 0.2 µM)
Outline: (§2)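 Lung cancer cell lines in 1536-well plates got either a single drug or a fixed anchor-drug dose together with five library-drug doses (not always all listed) in √10 steps, by pin tool, on the day after seeding. Nuclei were counted after 5 days, and relative viability is the treated-to-vehicle ratio of nuclei counts. Values are medians of duplicate plates.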

Motesanib + OSI-027 = compound: CC1(C)CNc2cc(NC(=O)c3cccnc3NCc3ccncc3)ccc21 [Motesanib] + COc1cccc2cc(-c3nc([C@H]4CC[C@H](C(=O)O)CC4)n4ncnc(N)c34)[nH]c12 [OSI-027] (partner 0.5 µM)
Outline: as §2

Row | Cell Line | relative viability ([1]; 0.04 µM) | relative viability ([1]; 0.1265 µM) | relative viability ([1]; 0.4 µM) | relative viability ([1]; 1.265 µM) | relative viability (Motesanib; 0.01 µM) | relative viability (Motesanib; 0.03162 µM) | relative viability (Motesanib; 0.1 µM) | relative viability (Motesanib; 0.3162 µM) | relative viability (Motesanib; 1 µM) | relative viability ([2]; first compound 0.04 µM) | relative viability ([2]; first compound 0.1265 µM) | relative viability ([2]; first compound 0.4 µM) | relative viability ([2]; first compound 1.265 µM) | relative viability (Motesanib + OSI-027; first compound 0.01 µM) | relative viability (Motesanib + OSI-027; first compound 0.03162 µM) | relative viability (Motesanib + OSI-027; first compound 0.1 µM) | relative viability (Motesanib + OSI-027; first compound 0.3162 µM) | relative viability (Motesanib + OSI-027; first compound 1 µM)
1 | HCC-366 | 1 | 0.98 | 1.03 | 0.753 | 1.04 | 1.01 | 0.991 | 1.04 | 1.07 | 0.21 | 0.245 | 0.212 | 0.163 | 0.964 | 0.959 | 0.863 | 0.881 | 1.03
2 | HCC-827 | 1.02 | 1.01 | 0.968 | 1.07 | 1.09 | 1.08 | 1.06 | 1.07 | 1.09 | 0.264 | 0.284 | 0.244 | 0.277 | 0.669 | 0.809 | 0.749 | 0.761 | 0.755
3 | HOP-62 | 1.03 | 0.97 | 0.914 | 1.08 | 1.06 | 1.04 | 1.12 | 1.09 | 1.11 | 0.294 | 0.297 | 0.315 | 0.341 | 0.843 | 0.912 | 0.839 | 0.92 | 0.815
4 | IA-LM | 1.05 | 1 | 0.863 | 0.861 | 0.927 | 1.03 | 0.957 | 1.04 | 0.941 |  |  |  |  |  |  |  |  | 
5 | LC-2-ad | 0.89 | 0.845 | 0.752 | 0.625 | 0.992 | 0.974 | 1.01 | 1.07 | 0.981 | 0.28 | 0.242 | 0.263 | 0.211 | 0.927 | 0.948 | 0.872 | 0.803 | 0.716
6 | LCLC-97TM1 | 0.824 | 0.356 | 0.225 | 0.143 | 0.895 | 0.961 | 0.95 | 1.03 | 0.999 | 0.137 | 0.155 | 0.149 | 0.143 | 0.519 | 0.56 | 0.465 | 0.58 | 0.537
7 | LCLC-103H | 0.896 | 0.922 | 0.799 | 0.885 | 0.914 | 0.958 | 0.974 | 1.02 | 1.06 | 0.49 | 0.509 | 0.44 | 0.41 | 0.471 | 0.467 | 0.465 | 0.429 | 0.466
8 | LK-2 | 0.623 | 1.06 | 0.508 | 0.636 | 1.05 | 0.945 | 0.914 | 1.05 | 1.02 | 0.175 | 0.195 |  | 0.156 | 0.225 | 0.195 | 0.168 | 0.218 | 0.256
9 | LOU-NH91 | 0.94 | 0.94 | 0.894 | 0.841 | 0.94 | 0.982 | 1.12 | 0.993 | 0.995 | 0.394 | 0.409 | 0.353 | 0.346 | 0.717 | 0.764 | 0.721 | 0.722 | 0.743
10 | LU99A | 0.72 | 0.645 | 0.6 | 0.381 | 0.911 | 1.03 | 0.905 | 1.02 | 0.98 | 0.187 | 0.165 | 0.183 | 0.165 | 0.287 | 0.261 | 0.301 | 0.307 | 0.322
11 | LXF-289 | 1.03 | 0.978 | 0.997 | 1.03 | 0.991 | 0.999 | 1.02 | 1.15 | 1.03 | 0.9 | 0.921 | 0.804 | 0.859 | 0.708 | 0.841 | 0.857 | 0.912 | 0.886
12 | NCI-H23 | 0.788 | 0.501 | 0.523 | 0.553 | 1.02 | 0.915 | 0.758 | 1.08 | 1.04 | 0.506 | 0.437 | 0.399 | 0.312 | 0.602 | 0.593 | 0.609 | 0.675 | 0.614
13 | NCI-H322M | 0.853 | 0.602 | 0.644 | 0.728 | 1.04 | 0.993 | 0.988 | 0.946 | 0.954 | 0.63 | 0.525 | 0.52 | 0.537 | 0.471 | 0.584 | 0.506 | 0.584 | 0.566
14 | NCI-H358 | 0.752 | 0.46 | 0.237 | 0.326 | 0.973 | 0.948 | 0.959 | 1.16 | 1.2 | 0.15 | 0.155 | 0.117 | 0.137 | 0.9 | 0.802 | 0.767 | 0.906 | 0.716
15 | NCI-H441 | 0.719 | 0.549 | 0.664 | 0.703 | 1.02 | 1.06 | 0.981 | 1.08 | 1.16 | 0.246 | 0.261 | 0.243 | 0.267 | 0.557 | 0.619 | 0.608 | 0.577 | 0.547
16 | NCI-H460 | 0.982 | 1.01 | 1.01 | 0.953 | 0.999 | 0.974 | 0.981 | 1.02 | 1 | 0.0607 | 0.0684 | 0.0535 | 0.0527 | 0.616 | 0.633 | 0.619 | 0.635 | 0.632
17 | NCI-H727 | 0.677 | 0.38 | 0.36 | 0.414 | 0.83 | 1 | 0.9 | 0.974 | 0.849 |  |  |  |  | 0.539 | 0.767 | 0.833 | 0.555 | 0.425
18 | NCI-H1299 | 1.05 | 0.954 | 1.02 | 1.04 | 1.01 | 0.999 | 1.04 | 1.02 | 1.05 |  |  |  |  |  |  |  |  | 
19 | NCI-H1623 | 0.809 | 0.79 | 0.678 | 0.622 | 1.06 | 1.08 | 0.901 | 0.964 | 0.926 |  |  |  |  | 0.454 | 0.475 | 0.475 | 0.389 | 0.409
20 | NCI-H1703 | 0.97 | 0.807 | 0.716 | 0.778 | 0.911 | 0.901 | 0.52 | 0.286 | 0.236 |  |  |  |  |  |  |  |  | 
